# Assay results: patent publication US7611832B2, “Human G protein-coupled receptor and modulators thereof for the treatment of ischemic heart disease and congestive heart failure” (Arena Pharmaceuticals, Inc., priority 2002, dated 2009)
# Experiments:
# [1] = tested on: RUP41 mRNA in NRVMs; assay: Northern blot of RUP41 mRNA in NRVMs treated with hypertrophic agents; settings: 24 hour treatment; PE 100 μM, PMA 100 nM, PGF2α 1 μM, NCS 10%
# [2] = tested on: RUP41 transcript in neonatal rat ventricular myocytes (NRVMs); assay: RT-PCR of RUP41 transcript in NRVMs treated with hypertrophic agents; assay type: cell-based; settings: 24 hours after addition to media; phenylephrine 100 μM, newborn calf serum 10%
# Experimental: Total RNA isolated from NRVMs as described above was used as a template for generation of reverse transcribed DNA (RT-DNA) using the RT for PCR kit (Becton Dickenson) according to manufacturers instructions. RUP41 expression was detected in RT-DNA samples by PCR. PCR conditions were 96° C. for 2 min, followed by 30 cycles of 96° C. for 30 sec, 55° C. for 30 sec, and 72° C. for 2 min, followed by 72° C. for 10 min. 20 μl of the reaction was loaded onto 1.5% agarose gel to analyze the RT-PCR products.
Compound,RUP41 mRNA expression (Northern blot) [1],RUP41 transcript levels (RT-PCR) [2]
CNC[C@H](O)c1cccc(O)c1 [phenylephrine],decreased level,drop dramatically
CCCCCCCCCCCCCC(=O)O[C@@H]1[C@@H](C)[C@@]2(O)[C@@H](C=C(CO)C[C@]3(O)C(=O)C(C)=C[C@@H]23)[C@@H]2C(C)(C)[C@]12OC(C)=O [phorbol 12-myristate 13-acetate],decreased level,–
prostaglandin F2α,decreased level,–
